Active and inactive are the calls of the source.

As a reminder, the MIC is the smallest concentration in the dilution series that meets the test's criterion for growth inhibition. Usually inhibition stands for the change of the read-out against control, counted positive when it falls. In general, Tmax refers to the time from dosing to the highest level. The term Cmax denotes the maximum level reached in the sampled fluid or tissue. Broadly, the AUC(0-inf) is total exposure, with the tail of the curve extrapolated.

Series [1] has as its system Candida albicans. The series can be described thus: Synergistic antifungal activity against FLC-resistant Candida albicans 646 assessed as MIC of FLC incubated for 48 hrs by broth microdilution method. The series is classed as functional. In general terms: In broth dilution the organism is exposed to a series of concentrations in liquid medium.
For series [2], the system named is Candida albicans. The series can be described thus: Synergistic antifungal activity against FLC-resistant Candida albicans 710554 assessed as MIC of FLC incubated for 48 hrs by broth microdilution method. The series is classed as functional.
Series [3] deals with Candida albicans. Put plainly: Synergistic antifungal activity against FLC-resistant Candida albicans 605141 assessed as MIC of FLC incubated for 48 hrs by broth microdilution method. The series is classed as functional.
Series [4] relates to Candida albicans. Put plainly: Synergistic inhibition of biofilm formation of Candida albicans SC5314 at 0.5 ug/ml incubated for 24 hrs in presence of 1 ug/ml of FLC by XTT assay relative to control. The series is classed as functional. In general terms: Tetrazolium dyes change colour on reduction, which living cells bring about.
Series [5] deals with Candida albicans. The series can be described thus: Synergistic antifungal activity against FLC-resistant Candida albicans 538 assessed as MIC of FLC incubated for 48 hrs by broth microdilution method. The series is classed as functional.
Series [6] concerns Candida albicans. The series can be described thus: Synergistic antifungal activity against FLC-resistant Candida albicans 710419 assessed as fungal growth inhibition incubated for 48 hrs in presence of FLC by broth microdilution method. The series is classed as functional.
Series [7] has as its system Candida albicans. The series can be described thus: Synergistic antifungal activity against FLC-resistant Candida albicans 395 assessed as MIC of FLC incubated for 48 hrs by broth microdilution method. The series is classed as functional.
The subject of series [8] is Candida albicans. The series can be described thus: Inhibition of hypha formation in Candida albicans SC5314 at 8 to 16 ug/ml incubated for 3 hrs by inverted phase contrast microscopy. The series is classed as functional, organism-based. To be noted: dose 8-16 µg/ml.
Series [9] deals with Candida albicans. Put plainly: Synergistic antifungal activity against FLC-resistant Candida albicans 305 assessed as fractional inhibitory concentration index incubated for 48 hrs in presence of FLC by broth microdilution method. The series is classed as functional.
Series [10] deals with Candida albicans. The series can be described thus: Synergistic antifungal activity against FLC-resistant Candida albicans 710452 assessed as fungal growth inhibition incubated for 48 hrs in presence of FLC by broth microdilution method. The series is classed as functional.
Series [11] concerns Candida albicans. The series can be described thus: Synergistic antifungal activity against FLC-resistant Candida albicans 953 assessed as fungal growth inhibition incubated for 48 hrs in presence of FLC by broth microdilution method. The series is classed as functional.
For series [12], the system named is Candida albicans. Put plainly: Synergistic antifungal activity against FLC-resistant Candida albicans 953 assessed as MIC of FLC incubated for 48 hrs by broth microdilution method. The series is classed as functional.
Series [13] has as its system Candida albicans. Put plainly: Synergistic antifungal activity against FLC-resistant Candida albicans 64548 assessed as MIC of FLC incubated for 48 hrs by broth microdilution method. The series is classed as functional.
The subject of series [14] is Candida albicans. The series can be described thus: Synergistic antifungal activity against FLC-resistant Candida albicans 379 assessed as MIC of FLC incubated for 48 hrs by broth microdilution method. The series is classed as functional.
In series [15] the test system is Candida albicans. Put plainly: Synergistic antifungal activity against FLC-resistant Candida albicans 249 assessed as fractional inhibitory concentration index incubated for 48 hrs in presence of FLC by broth microdilution method. The series is classed as functional.
Series [16] deals with Candida albicans. The series can be described thus: Synergistic antifungal activity against Candida albicans 0304103 assessed as reduction in fungal growth at 8 ug/ml incubated for 48 hrs in presence of FLC by time-kill assay. To be noted: dose 8 µg/ml. The series is classed as functional.
Series [17] can be described thus: Tmax in Sprague-Dawley rat at 5 mg/kg, po by LC-MS/MS analysis. The series is classed as ADME, organism-based. To be noted: in vivo.
Series [18] relates to Candida albicans. Put plainly: Synergistic antifungal activity against FLC-resistant Candida albicans 241 assessed as MIC of FLC incubated for 48 hrs by broth microdilution method. The series is classed as functional.
Series [19] concerns Candida albicans. The series can be described thus: Inhibition of biofilm formation of Candida albicans SC5314 at 16 ug/ml incubated for 24 hrs by XTT assay relative to control. The series is classed as functional.
In series [20] the test system is Candida albicans. Put plainly: Synergistic antifungal activity against FLC-resistant Candida albicans 953 assessed as fractional inhibitory concentration index incubated for 48 hrs in presence of FLC by broth microdilution method. The series is classed as functional.
Series [21] relates to Candida albicans. The series can be described thus: Synergistic antifungal activity against FLC-resistant Candida albicans 538 assessed as fungal growth inhibition incubated for 48 hrs in presence of FLC by broth microdilution method. The series is classed as functional.
For series [22], the system named is Candida albicans. The series can be described thus: Synergistic antifungal activity against FLC-resistant Candida albicans 819 assessed as fractional inhibitory concentration index incubated for 48 hrs in presence of FLC by broth microdilution method. The series is classed as functional.
For series [23], the system named is Candida albicans. Put plainly: Antifungal activity against Candida albicans 0304103 assessed as fungal growth inhibition at 4 to 8 ug/ml incubated for 48 hrs by time-kill assay. The series is classed as functional, organism-based. To be noted: dose 4-8 µg/ml.
For series [24], the system named is Candida albicans. The series can be described thus: Synergistic antifungal activity against FLC-resistant Candida albicans 540 assessed as fractional inhibitory concentration index incubated for 48 hrs in presence of FLC by broth microdilution method. The series is classed as functional.
Series [25] deals with Candida albicans. The series can be described thus: Synergistic antifungal activity against Candida albicans 0304103 assessed as fungal growth inhibition at 4 ug/ml incubated for 48 hrs in presence of FLC by time-kill assay. To be noted: dose 4.0 µg/ml. The series is classed as functional, organism-based.
For series [26], the system named is Candida albicans. The series can be described thus: Synergistic antifungal activity against FLC-resistant Candida albicans 304103 assessed as fractional inhibitory concentration index incubated for 48 hrs in presence of FLC by broth microdilution method. The series is classed as functional.
For series [27], the system named is Candida albicans. Put plainly: Synergistic antifungal activity against FLC-resistant Candida albicans 819 assessed as MIC of FLC incubated for 48 hrs by broth microdilution method. The series is classed as functional.
The subject of series [28] is Candida albicans. The series can be described thus: Synergistic antifungal activity against FLC-resistant Candida albicans 379 assessed as fungal growth inhibition incubated for 48 hrs in presence of FLC by broth microdilution method. The series is classed as functional.
Series [29] concerns Candida albicans. The series can be described thus: Synergistic antifungal activity against FLC-resistant Candida albicans 710452 assessed as fractional inhibitory concentration index incubated for 48 hrs in presence of FLC by broth microdilution method. The series is classed as functional.
Series [30] in a line: Cmax in Sprague-Dawley rat at 5 mg/kg, po by LC-MS/MS analysis. The series is classed as ADME, organism-based. Also noted: dose 5 mg/kg, route po. To be noted: in vivo.
Series [31] concerns Candida albicans. The series can be described thus: Synergistic antifungal activity against FLC-resistant Candida albicans 710513 assessed as fractional inhibitory concentration index incubated for 48 hrs in presence of FLC by broth microdilution method. The series is classed as functional.
In series [32] the test system is Candida albicans. Put plainly: Synergistic antifungal activity against FLC-resistant Candida albicans 12 assessed as fungal growth inhibition incubated for 48 hrs in presence of FLC by broth microdilution method. The series is classed as functional.
Series [33] has as its system Candida albicans. The series can be described thus: Synergistic antifungal activity against FLC-resistant Candida albicans 710506 assessed as fractional inhibitory concentration index incubated for 48 hrs in presence of FLC by broth microdilution method. The series is classed as functional.
Series [34] has as its system Candida albicans. The series can be described thus: Synergistic antifungal activity against FLC-resistant Candida albicans 304103 assessed as fungal growth inhibition incubated for 48 hrs in presence of FLC by broth microdilution method. The series is classed as functional.
Series [35] in a line: AUC (0 to infinity) in Sprague-Dawley rat at 5 mg/kg, po by LC-MS/MS analysis. The series is classed as ADME, organism-based. Also noted: dose 5 mg/kg, route po. The conditions noted are these: in vivo.
For series [36], the system named is Candida albicans. Put plainly: Synergistic antifungal activity against FLC-resistant Candida albicans 646 assessed as fungal growth inhibition incubated for 48 hrs in presence of FLC by broth microdilution method. The series is classed as functional.
The test system of series [37] is Candida albicans. The series can be described thus: Synergistic antifungal activity against FLC-resistant Candida albicans 512644 assessed as fungal growth inhibition incubated for 48 hrs in presence of FLC by broth microdilution method. The series is classed as functional.
The subject of series [38] is Candida albicans. Put plainly: Synergistic antifungal activity against FLC-resistant Candida albicans 512644 assessed as MIC of FLC incubated for 48 hrs by broth microdilution method. The series is classed as functional.
Series [39] has as its system Candida albicans. The series can be described thus: Synergistic antifungal activity against FLC-resistant Candida albicans 710506 assessed as MIC of FLC incubated for 48 hrs by broth microdilution method. The series is classed as functional.
A short description of series [40]: Toxicity in C57BL/6 mouse infected with Candida albicans SC5314 assessed as animal death at 2 mg/kg, ip measured after 7 days. The conditions noted are these: in vivo, 168 h, time 7 day. The series is classed as organism-based.

Turning to `CCN(CC)c1ccc(C(NC(=O)C(C)C)c2ccc3cccnc3c2O)cc1` (stereo not given), the MIC in the series with Candida albicans [1] amounted to 1 µg/mL; in the series on Candida albicans [2] it was 0.5 µg/mL; with Candida albicans [3], 0.125 µg/mL; with Candida albicans [5], 2 µg/mL; with Candida albicans [6], 0.031 µg/mL; with Candida albicans [7], 0.25 µg/mL. Moreover, the MIC was found to be 0.016 µg/mL in the series with Candida albicans [10]; 0.016 µg/mL with Candida albicans [11]; 0.125 µg/mL in the series on Candida albicans [12]; 0.063 µg/mL with Candida albicans [13]; 1 µg/mL with Candida albicans [14]; 1 µg/mL with Candida albicans [18]. Further, the MIC in the series with Candida albicans [21] was determined as 0.008 µg/mL; with Candida albicans [27], 0.25 µg/mL; in the series with Candida albicans [28], 0.008 µg/mL; with Candida albicans [32] it was 0.008 µg/mL; in the series on Candida albicans [34] it was 0.008 µg/mL; in the series with Candida albicans [36], 0.016 µg/mL. Also, the MIC was determined as 0.008 µg/mL with Candida albicans [37], 2 µg/mL in the series with Candida albicans [38] and 0.5 µg/mL in the series on Candida albicans [39]. For the same compound, the inhibition at 0.5 µg/mL with Candida albicans [4] is 48.7%. Further, in the series on Candida albicans [8], the inhibition result is “Active”. In addition, the “fractional inhibitory concentration index (FICI)” value came out at 0.039 with Candida albicans [9]; 0.035 in the series on Candida albicans [15]; 0.032 with Candida albicans [20]; 0.133 in the series with Candida albicans [22]; 0.064 in the series on Candida albicans [24]; 0.047 with Candida albicans [26]. In addition, the “fractional inhibitory concentration index (FICI)” value was 0.127 with Candida albicans [29], 0.039 in the series on Candida albicans [31] and 0.035 with Candida albicans [33]. In the series on Candida albicans [16], the Activity is given as more than 3 log10CFU/ml. The Tmax in series [17] turned out to be 15 min. The inhibition at 16 µg/mL in the series with Candida albicans [19] was 29.8%. In the series on Candida albicans [23], the “growth inhibition (GI)” value is “inactive”. Also, the “growth inhibition (GI)” value with Candida albicans [25] is “Active”. Moreover, the Cmax in series [30] turned out to be 239 ng/mL. Moreover, the area under the curve AUC(0-inf) in [35] worked out at 158 ng·h/mL.
With `Oc1c(I)cc(Cl)c2cccnc12` [CLIOQUINOL], the Activity result in [40] is “Non-Toxic”.

(Values after ChEMBL document CHEMBL5375952, “Discovery of Novel 8-Hydroxyquinoline Derivatives with Potent In Vitro and In Vivo Antifungal Activity” (J Med Chem, 2023).)
